Measured values reported in patent US20240099997A1, “METALLOENZYME MODULATORS” (Regents of the University of Minnesota, priority 2022, published 2024).

Molecular target: T1, horse heart myoglobin (Mb) (Equus caballus, UniProt P68082)
T1 construct: Lyophilized horse heart Mb, human Hb, equine heart cytochrome c were in their ferric form when dissolved in buffer; purchased Sigma M1882; host or cells: horse heart
Assay: UV-Vis spectrophotometric ligand affinity study, myoglobin
Settings: ferric horse heart Mb, PBS pH 7.4, Soret shift 409 to 422 nm; read-out: Kd (binding affinity to ferric Mb heme)
Description: UV-Vis spectrophotometric ligand affinity studies for ferric and ferrous-oxy heme proteins were performed using a Cary4000 UV-Vis spectrophotometer. These studies were performed in an aerobic environment. Lyophilized horse heart Mb, human Hb, equine heart cytochrome c were in their ferric form when dissolved in buffer. DosS GAF-A was purified in its ferric form. Ferrous-oxy forms of Mb and hemoglobin (Hb) were prepared by addition of a small aliquot of sodium dithionite to the proteins (in air) and running the protein through PD-10 columns twice to remove excess dithionite/other products. […] The protein concentration was set to ˜1 μM to obtain a desirable absorbance reading at the Soret peak region. […] For those fragments with some intrinsic absorbance in the aforementioned region, a second titration was performed with the same conditions, but without protein. […]
UV-Vis spectrophotometric ligand affinity studies for ferrous heme proteins were performed using a Cary 60 UV-Vis spectrophotometer. […] The sum of the maximal and minimal differences in absorbance was plotted for each concentration point for each ligand. […]
where Y is the observed change in absorbance, A is the maximum change in absorbance, Kd is the dissociation constant of the ligand, L is the ligand concentration and P is the protein concentration. The maximal change in absorbance, A, is obtained through nonlinear regression. […]

T1 sequence (P68082 whole entry): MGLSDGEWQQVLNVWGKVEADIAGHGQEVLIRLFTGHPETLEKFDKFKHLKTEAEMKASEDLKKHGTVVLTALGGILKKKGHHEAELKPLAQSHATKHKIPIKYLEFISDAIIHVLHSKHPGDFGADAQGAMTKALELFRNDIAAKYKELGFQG

With `N#CN1CCSCC1` [HT-N1, thiomorpholine N-carbonitrile] the Kd was 2570 ± 328 µM.
